Measured values taken from PMC8068264 (2021).

Experiments:
[1] = test system: SA5-6A/B (DNA, aptamer) CCTGCGGAGGAAGGTTCGACCATCGTGCGGGTAGGTAGA/GAACCTGGGGGAGTAGGTCTACCTACCCGCACGATGGTC; experiment: UV melting at 260 nm; settings: 150 mM NaCl, 5 mM MgCl2; 10 mM HEPES pH 7.4; 100 µM adenosine; 0.9 µM strands; first (aptachain) peak
[2] = test system: Apta6 (DNA, aptamer) GAACCTGGGGGAGTATTGCGGAGGAAGGTTC; experiment: UV melting at 260 nm; settings: 150 mM NaCl, 5 mM MgCl2; 10 mM HEPES pH 7.4; 100 µM adenosine; 0.9 µM strand; single hairpin peak
[3] = test system: SA5-5A/B (DNA, aptamer) CCTGCGGAGGAAGGTTGACCATCGTGCGGGTAGGTAGA/AACCTGGGGGAGTAGGTCTACCTACCCGCACGATGGTC; experiment: UV melting at 260 nm; settings: 150 mM NaCl, 5 mM MgCl2; 10 mM HEPES pH 7.4; 100 µM adenosine; 0.9 µM strands; first (aptachain) peak
[4] = test system: SA3-6A/B (DNA, aptamer) TGCGGAGGAAGGTTCGACCATCGTGCGGGTAGGTAGACC/GAACCTGGGGGAGTAGGTCTACCTACCCGCACGATGGTC; experiment: UV melting first-peak height, Langmuir fit; settings: 150 mM NaCl, 5 mM MgCl2; 10 mM HEPES pH 7.4; 0.9 µM strands; peak normalized to dimer peak; apparent; per site
[5] = test system: SA5-8A/B (DNA, aptamer) CCTGCGGAGGAAGGTTCTCGACCATCGTGCGGGTAGGTAGA/GAGAACCTGGGGGAGTAGGTCTACCTACCCGCACGATGGTC; experiment: UV melting at 260 nm; settings: 150 mM NaCl, 5 mM MgCl2; 10 mM HEPES pH 7.4; 100 µM adenosine; 0.9 µM strands; first (aptachain) peak
[6] = test system: SA3-5A/B (DNA, aptamer) TGCGGAGGAAGGTTGAGGACCATCGTGCGGGTAGGTAGACC/GAGAACCTGGGGGAGTAGGTCTACCTACCCGCACGATGGTC; experiment: UV melting at 260 nm; settings: 150 mM NaCl, 5 mM MgCl2; 10 mM HEPES pH 7.4; 100 µM adenosine; peak at 28 °C only with adenosine, absent without
[7] = test system: SA3-6A/B (DNA, aptamer) TGCGGAGGAAGGTTCGACCATCGTGCGGGTAGGTAGACC/GAACCTGGGGGAGTAGGTCTACCTACCCGCACGATGGTC; experiment: UV melting at 260 nm; settings: 150 mM NaCl, 5 mM MgCl2; 10 mM HEPES pH 7.4; 100 µM adenosine; 0.9 µM strands; first (aptachain) peak
[8] = test system: SA3-6A/B (DNA, aptamer) TGCGGAGGAAGGTTCGACCATCGTGCGGGTAGGTAGACC/GAACCTGGGGGAGTAGGTCTACCTACCCGCACGATGGTC; experiment: UV melting, first-peak height; settings: 150 mM NaCl, 5 mM MgCl2; 10 mM HEPES pH 7.4; 100 µM guanosine negative control; signal close to that of 5 µM adenosine

ΔTm [1]	ΔTm [2]	ΔTm [3]	KD [4]	ΔTm [5]	binding [6]	ΔTm [7]	binding [8]	Structure (SMILES)
2.5 °C	< 1 °C	2.5 °C	19 ± 2 µM	2 °C	yes	5.5 °C	–	Nc1ncnc2c1ncn2[C@@H]1O[C@H](CO)[C@@H](O)[C@H]1O
–	–	–	–	–	–	–	weak	Nc1nc2c(ncn2[C@@H]2O[C@H](CO)[C@@H](O)[C@H]2O)c(=O)[nH]1
